Where two headings read alike, the source gives them in different places.
How the values were obtained:
Chk-1 kinase = Chk-1 kinase (Homo sapiens (Human), UniProt O14757); experiment: Chk-1 kinase inhibiting activity (33P-ATP filter assay, CHKtide substrate); type: biochemical
HT29 = experiment: Potentiation assay with DNA damaging agents in HT29 cells; type: cell-based; settings: HT29 human colon cancer; gemcitabine; Example 4 at 4 μM
Procedure: (§1) The following protocol was used:
(§2) (a) HT29 cells were seeded in 96-well plates at a concentration of 3000 cells per well and allowed to adhere overnight prior to addition of compound or vehicle control.
(§3) (b) SN38 was prepared from a 10 mM DMSO stock to give a final concentration range of 1 μM, 300 nM, 100 nM, 30 nM, 10 nM, 3 nM, 1 nM, and vehicle control.
(§4) (c) Test compounds were prepared from 10 mM DMSO stocks to typically give a final concentration range of 3 μM, 1 μM, 0.3 μM. 0.1 μM, 0.03 μM and vehicle control. The final DMSO content was 0.4%.
(§5) (d) Test compounds were incubated with the cells for 72 h at 37° C. 5% CO2 in a humidified atmosphere.
(§6) (e) Alamar blue 10% (v/v) was then added and incubated for a further 6 h, and fluorescent product detected using the BMG FLUOstar plate reader.
(§7) (f) Data were analysed using a 4-parameter logistic equation in GraphPad Prism.
Sensitisation is determined by the enhancement in IC50 of SN38 by the addition of the Chk-1 kinase inhibitor. In the protocol described above, the IC50 for SN-38 is determined the presence of varying doses of the Chk-1 inhibitor. The fold shift represents a decrease in IC50 for SN-38 at a dose of Chk-1 inhibitor that has no effect by itself. […]

SW620 = experiment: Potentiation assay with DNA damaging agents in SW620 cells; type: cell-based; settings: SW620 human colon adenocarcinoma
Procedure: as §1, §2, §3, §4, §5, §6, §7
(§8) Sensitisation is determined by the enhancement in IC50 of SN38 by the addition of the Chk-1 kinase inhibitor. In the protocol described above, the IC50 for SN-38 is determined the presence of varying doses of the Chk-1 inhibitor. The fold shift represents a decrease in IC50 for SN-38 at a dose of Chk-1 inhibitor that has no effect by itself.
(§9) Using the general protocol set out in Example 67, the compound of Example 4 was tested in potentiation assays against a variety of cell lines in combination with several different DNA damaging anti-cancer agents.

Calu 6 = experiment: Potentiation assay with DNA damaging agents in Calu 6 cells; type: cell-based; settings: Calu 6 human lung adenocarcinoma, Example 4 at 8 μM
Procedure: as §1, §2, §3, §4, §5, §6, §7, §8, §9

HT29 cells = experiment: Sensitisation of HT29 cells to SN38 (Alamar blue cell growth); type: cell-based, human; settings: HT29 cells; test compound at 1.25 μM

Chk-1 kinase, sequence (O14757 whole entry): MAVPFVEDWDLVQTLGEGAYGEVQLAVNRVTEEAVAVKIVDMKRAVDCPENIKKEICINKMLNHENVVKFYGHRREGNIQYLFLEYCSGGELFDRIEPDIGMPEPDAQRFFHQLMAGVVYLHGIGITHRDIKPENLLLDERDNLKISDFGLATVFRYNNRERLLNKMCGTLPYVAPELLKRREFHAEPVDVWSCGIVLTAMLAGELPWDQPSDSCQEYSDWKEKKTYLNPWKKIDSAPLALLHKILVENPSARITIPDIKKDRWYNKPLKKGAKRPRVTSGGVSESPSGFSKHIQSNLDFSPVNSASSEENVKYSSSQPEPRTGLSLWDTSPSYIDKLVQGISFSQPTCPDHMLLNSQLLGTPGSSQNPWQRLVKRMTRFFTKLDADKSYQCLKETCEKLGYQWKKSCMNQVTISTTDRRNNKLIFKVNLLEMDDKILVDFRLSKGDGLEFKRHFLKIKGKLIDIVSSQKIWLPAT

How did the IC50 (Chk-1 kinase; Chk-1 kinase, Table 3, read-out: IC50) turn out when `N#Cc1cnc(NC(=O)Nc2ccc(CCNCc3ccc(F)cc3)c(Cl)c2)cn1` [Example 4, 1-{3-Chloro-4-[2-(4-fluoro-benzylamino)-ethyl]-phenyl}-3-(5-cyano-pyrazin-2-yl)-urea] was run?
The IC50 was 0.015 µM.

What about the IC50 (Chk-1 kinase; ranges given, read-out: IC50 values against Chk-1 kinase) of the same compound?
Its IC50 is 0.01 to 0.1 µM.

And the Potentiation factor (HT29)?
The Potentiation factor was 18.

What about the Potentiation factor (SW620; SN-38, Example 4 at 4 μM) of the same compound?
The Potentiation factor was 16.4.

And the Potentiation factor (SW620; etoposide, Example 4 at 1 μM)?
Its Potentiation factor is 2.6.

And the Potentiation factor (SW620; gemcitabine, Example 4 at 2 μM)?
Its Potentiation factor is 2.5.

What about the Potentiation factor (Calu 6; SN-38) of the same compound?
Its Potentiation factor is 3.7.

What about the Potentiation factor (Calu 6; etoposide) of the same compound?
The Potentiation factor was 7.6.

What about the Potentiation factor (Calu 6; gemcitabine) of the same compound?
Its Potentiation factor is 6.1.

What about the “fold shift in the IC50 value of SN38” value (HT29 cells) of the same compound?
The value was “three”.
